Common to all, as to format: binding
For test [1], the target named is T1, HLA-A*68:01 (Homo sapiens, UniProt P04439, A269V/D185E/E176V/E277Q/E87N/F33Y/G231S/I121M/I166T/I218V/L180W/L300P/L318F/N151K/P208A/P217A/Q86R/R169H/T345S).
Test [2] addresses T2, HLA-B*58:01 (Homo sapiens, UniProt P01889, A329T/C349S/D201E/D98Y/E176V/E187L/E204Q/E69T/G107R/I218V/I90N/K202T/L105A/L119I/N104I/N87E/Q89R/Q94S/R106L/R155S/R180L/R86G/S101N/S121R/S35A/S48A/T118I/V127L/V306I/V36M/Y140S/Y91M). Particulars: percent relative the binding of positive control peptide […]; duplicated experiments; positive binder >40%.
Test [3] deals with T1, HLA-A*68:01. The note with it: percent relative the binding of positive control peptide […]; duplicated experiments; positive binder >40%.
Another test concerns the target HLA-C*07:01 (Homo sapiens, UniProt P10321, K90N/S123Y). Particulars: percent relative the binding of positive control peptide […]; duplicated experiments; positive binder >40%.
Test [4] concerns the target T1, HLA-A*68:01. The note with it: time points 0-8 h.
For test [5], the target named is T2, HLA-B*58:01. The note with it: time points 0-8 h.
The target in test [6] is T2, HLA-B*58:01.
A further test has as its target HLA-A*24:02 (Homo sapiens, UniProt P04439, D101N/D140Y/D185E/E176V/E190D/F33S/G103R/G107R/I119L/I121M/I306V/K335N/L105A/L180Q/L300P/N151K/N90K/Q86E/Q94H/R106L/R138H/R89G/T104I/T345S/V100E/W191G/Y123F). The note with it: percent relative the binding of positive control peptide […]; duplicated experiments; positive binder >40%.
The target in test [7] is T3, HLA-A*02:01 (Homo sapiens, UniProt P04439, D140Y/D185E/D98H/E176V/E277Q/G131W/G231S/I119V/I121R/I166T/I218V/L300P/L318F/N151K/N90K/P208A/P217A/Q86G/Q94H/R138H/R169H/T345S). Particulars: […]; peptide quantity for 50% binding saturation.
Test [8] concerns the target T4, HLA-A*30:02 (Homo sapiens, UniProt P04439, D101N/D140H/D185E/E176R/F33S/G80R/H175R/K168Q/Q94H/R138E/R41S/V100E). The note with it: percent relative the binding of positive control peptide […]; duplicated experiments; positive binder >40%.
Test [9] addresses T3, HLA-A*02:01. Particulars: time points 0-8 h; time when 50% of peptide has dissociated.
For a further test, the target named is HLA-A*30:01 (Homo sapiens, UniProt P04439, D140H/D185E/E176W/F33S/G80R/H175R/K168Q/R138E/R41S). Particulars: percent relative the binding of positive control peptide […]; duplicated experiments; positive binder >40%.
Test [10] addresses T3, HLA-A*02:01. The note with it: percent relative the binding of positive control peptide […]; plate-bound monomer 0.5 µg/ml; duplicated experiments; positive binder >40%.
A further test concerns the target HLA-B*07:02 (Homo sapiens, UniProt P01889). Particulars: percent relative the binding of positive control peptide […]; duplicated experiments; positive binder >40%.
The target in test [11] is T4, HLA-A*30:02. The note with it: time points 0-8 h.
The target of test [12] is T4, HLA-A*30:02.

With WQGDTGITY [Rv0288_43–51], the “Aff A*68:01 (ED50)” value on HLA-A*68:01 [1] turned out to be 1e-05 M. Further, at HLA-B*58:01 [2], the “Bind B*58:01” value is on record as 33%. Further, the “Bind A*68:01” value at HLA-A*68:01 [3] was 61%. Further, the “Bind C*07:01” value on HLA-C*07:01 was found to be 0%. The “O-rate A*68:01 (t1/2)” value on HLA-A*68:01 [4] is reported as 6.0 h. In addition, at HLA-B*58:01 [5], the “O-rate B*58:01 (t1/2)” value stood at 1.8 h. For the same sequence, at HLA-B*58:01 [6], the “Aff B*58:01 (ED50)” value came out at 8 µM.

With GLSIVMPVG, at HLA-A*24:02, the “Bind A*24:02” value was 0%. For the same sequence, the “Bind B*58:01” value at HLA-B*58:01 [2] stood at 0%. Besides, the “Aff A*02:01 (ED50)” value at HLA-A*02:01 [7] worked out at 0.07 µM. Further, the “Bind A*30:02” value on HLA-A*30:02 [8] amounted to 0%. The “Bind A*68:01” value at HLA-A*68:01 [3] amounted to 0%. On HLA-A*02:01 [9], the “O-rate A*02:01 (t1/2)” value is on record as 2.1 h. Also, the “Bind C*07:01” value at HLA-C*07:01 is given as 0%. In addition, the “Bind A*30:01” value at HLA-A*30:01 was determined as 0%. For the same sequence, on HLA-A*02:01 [10], the “Bind A*02:01” value came to 100%. For the same sequence, the “Bind B*07:02” value at HLA-B*07:02 turned out to be 0%.

Regarding EQAALQSAW [Rv0288_35–43], the “Aff A*68:01 (ED50)” value on HLA-A*68:01 [1] is 1e-05 M. At HLA-B*58:01 [2], the “Bind B*58:01” value was determined as 79%. Further, at HLA-A*68:01 [3], the “Bind A*68:01” value stood at 47%. In addition, the “Bind C*07:01” value on HLA-C*07:01 was 0%. Besides, the “O-rate A*68:01 (t1/2)” value on HLA-A*68:01 [4] is on record as 2.8 h. Moreover, on HLA-B*58:01 [5], the “O-rate B*58:01 (t1/2)” value amounted to 0.8 h. Also, at HLA-B*58:01 [6], the “Aff B*58:01 (ED50)” value is 6 µM.

Take RDTAEAAKW [Rv0288_86–94]: the “Aff A*68:01 (ED50)” value at HLA-A*68:01 [1] was 1e-05 M. Also, at HLA-B*58:01 [2], the “Bind B*58:01” value was 45%. Moreover, at HLA-A*68:01 [3], the “Bind A*68:01” value is on record as 65%. Also, the “Bind C*07:01” value at HLA-C*07:01 stood at 0%. In addition, the “O-rate A*68:01 (t1/2)” value on HLA-A*68:01 [4] came out at 4.3 h. In addition, at HLA-B*58:01 [5], the “O-rate B*58:01 (t1/2)” value was found to be 2.6 h. The “Aff B*58:01 (ED50)” value on HLA-B*58:01 [6] was found to be 5 µM.

Consider QAWQAQWNQ [Rv0288_52–60], for which the “Aff A*68:01 (ED50)” value at HLA-A*68:01 [1] turned out to be 7e-06 M. Further, the “Bind B*58:01” value at HLA-B*58:01 [2] stood at 45%. The “Bind A*68:01” value on HLA-A*68:01 [3] is 55%. The “Bind C*07:01” value at HLA-C*07:01 stood at 0%. Besides, the “O-rate A*68:01 (t1/2)” value at HLA-A*68:01 [4] stood at 3.0 h. The “O-rate B*58:01 (t1/2)” value at HLA-B*58:01 [5] is 0.5 h. The “Aff B*58:01 (ED50)” value on HLA-B*58:01 [6] was 4 µM.

For the sequence ITYQAWQAQ [Rv0288_49–57], on HLA-A*68:01 [1], the “Aff A*68:01 (ED50)” value was found to be 9e-06 M. Besides, the “Bind B*58:01” value at HLA-B*58:01 [2] was 78%. Besides, the “Bind A*68:01” value on HLA-A*68:01 [3] is given as 56%. Further, the “Bind C*07:01” value at HLA-C*07:01 amounted to 0%. Moreover, the “O-rate A*68:01 (t1/2)” value at HLA-A*68:01 [4] is 1.9 h. At HLA-B*58:01 [5], the “O-rate B*58:01 (t1/2)” value is recorded as 0.5 h. Moreover, the “Aff B*58:01 (ED50)” value at HLA-B*58:01 [6] was 0.2 µM.

With QSSFYSDWY, the “Bind A*24:02” value on HLA-A*24:02 is on record as 0%. For the same sequence, the “Aff A*68:01 (ED50)” value at HLA-A*68:01 [1] is listed as 1E -06 M. Further, the “Bind B*58:01” value on HLA-B*58:01 [2] was found to be 39%. In addition, the “O-rate A*30:02 (t1/2)” value at HLA-A*30:02 [11] is reported as 2.2 h. Further, on HLA-A*30:02 [8], the “Bind A*30:02” value amounted to 90%. Further, the “Aff A*30:02 (ED50)” value at HLA-A*30:02 [12] worked out at 0.6 µM. The “Bind A*68:01” value on HLA-A*68:01 [3] is on record as 82%. Besides, at HLA-C*07:01, the “Bind C*07:01” value is 22%. At HLA-A*30:01, the “Bind A*30:01” value is 0%. The “Bind A*02:01” value at HLA-A*02:01 [10] came to 0%. For the same sequence, the “O-rate A*68:01 (t1/2)” value at HLA-A*68:01 [4] is listed as 0.4 h. Also, at HLA-B*07:02, the “Bind B*07:02” value was 0%.

On to AVYLLDGLR, for which the “Bind A*24:02” value at HLA-A*24:02 amounted to 8%. The “Aff A*68:01 (ED50)” value at HLA-A*68:01 [1] was 2E -07 M. For the same sequence, the “Bind B*58:01” value at HLA-B*58:01 [2] was 0%. Also, on HLA-A*30:02 [11], the “O-rate A*30:02 (t1/2)” value is given as 1.2 h. At HLA-A*30:02 [8], the “Bind A*30:02” value is 115%. The “Aff A*30:02 (ED50)” value at HLA-A*30:02 [12] was 0.2 µM. Also, the “Bind A*68:01” value at HLA-A*68:01 [3] is 114%. Further, the “Bind C*07:01” value on HLA-C*07:01 is 4%. In addition, the “Bind A*30:01” value on HLA-A*30:01 was 1%. In addition, the “Bind A*02:01” value on HLA-A*02:01 [10] is listed as 24%. For the same sequence, the “O-rate A*68:01 (t1/2)” value on HLA-A*68:01 [4] worked out at 1.1 h. At HLA-B*07:02, the “Bind B*07:02” value is recorded as 0%.

Regarding MLDHAGDMA [Rv0288_11–19m1], on HLA-A*02:01 [7], the “Aff A*02:01 (ED50)” value came to 0.06 µM. For the same sequence, on HLA-A*02:01 [9], the “O-rate A*02:01 (t1/2)” value was 1.5 h. In addition, the “Bind A*02:01” value on HLA-A*02:01 [10] amounted to 48%.

(Values after publication PMC3608651, “A Broad Profile of Co-Dominant Epitopes Shapes the Peripheral Mycobacterium tuberculosis Specific CD8+ T-Cell Immune Response in South African Patients with Active Tuberculosis” (PLoS ONE, 2013).)
